Results reported in paper PMC12396409, “Screening and hit evaluation of a microbial metabolite library against the pathogenic Plasmodium falciparum and Toxoplasma gondii parasites” (International Journal for Parasitology: Drugs and Drug …, 2025).
Where two headings read alike, the source gives them in different places.

Key:
[1] = system: P. falciparum 3D7 parasites; test: P. falciparum growth inhibition assay, 2-cycle (120 h treatment), delayed-death screen and dose-response; assay type: cell-based, Plasmodium falciparum; conditions: for activity at 2 µg/mL: Plasmodium falciparum, 3D7
[2] = system: P. falciparum 3D7 parasites; test: P. falciparum growth inhibition assay, 1-cycle (72 h treatment), SYBR DNA staining (library screen at 2 μg/mL and dose-response); assay type: cell-based, Plasmodium falciparum; conditions: for activity at 2 µg/mL: Plasmodium falciparum, 3D7
[3] = system: T. gondii RH strain (RH-Tub-eYFP) tachyzoites; test: microbe, parasite or virus in culture; assay type: cell-based, Toxoplasma gondii
[4] = P. falciparum, 120 h, parasite screen 2 μg/mL, % growth, replicate 1
[5] = P. falciparum, 120 h, parasite screen 2 μg/mL, % growth, replicate 2
[6] = P. falciparum, 72 h, parasite screen 2 μg/mL, % growth, replicate 1
[7] = P. falciparum, 72 h, parasite screen 2 μg/mL, % growth, replicate 2
[8] = T. gondii, 72 h, parasite screen 2 μg/mL, % growth, replicate 1
[9] = T. gondii, 72 h, parasite screen 2 μg/mL, % growth, replicate 2
[10] = library screen at 2 μg/mL, 120 h, % growth, replicate 1
[11] = library screen at 2 μg/mL, 120 h, % growth, replicate 2
[12] = library screen at 2 μg/mL, 72 h, % growth, replicate 1
[13] = library screen at 2 μg/mL, 72 h, % growth, replicate 2
[14] = library screen at 2 μg/mL, 120 h, % growth, replicate 1, read-out: Pf_120h_%Growth_Rep1
[15] = library screen at 2 μg/mL, 120 h, % growth, replicate 2, read-out: Pf_120h_%Growth_Rep2
[16] = library screen at 2 μg/mL, 72 h, % growth, replicate 1, read-out: Pf_72h_%Growth_Rep1
[17] = library screen at 2 μg/mL, 72 h, % growth, replicate 2, read-out: Pf_72h_%Growth_Rep2
[18] = T. gondii, 72 h, 2 μg/mL; values are growth (% of control)

SMILES: C=CC(C)(C)c1[nH]cnc1/C=C1/NC(=O)[C@@H]2C[C@@]3(C(C)(C)C=C)c4ccccc4N[C@H]3N2C1=O [Roquefortine E]
- Pf_120h_%Growth_Rep1 [1, 4]: 14.59%
- Pf_120h_%Growth_Rep2 [1, 5]: 17.38%
- Pf_72h_%Growth_Rep1 [2, 6]: 11.66%
- Pf_72h_%Growth_Rep2 [2, 7]: 6.85%
- Tg_72h_%Growth_Rep1 [3, 8]: 75.06%
- Tg_72h_%Growth_Rep2 [3, 9]: 97.61%

SMILES: C/C=C/[C@@H]1C=C[C@@H]2C[C@H](C)CC[C@H]2[C@]1(C)/C(O)=C1/C(=O)[C@@H](CO)N(C)C1=O [Epiequisetin]
- Pf_120h_%Growth_Rep1 [1, 10]: 86.15%
- Pf_120h_%Growth_Rep2 [1, 11]: 82.07%
- Pf_72h_%Growth_Rep1 [2, 12]: 86.43%
- Pf_72h_%Growth_Rep2 [2, 13]: 84.23%
- Tg_72h_%Growth_Rep1 [3, 12]: 129.84%
- Tg_72h_%Growth_Rep2 [3, 13]: 98.00%

SMILES: C/C(=C\c1csc(C)n1)[C@@H]1C[C@@H]2O[C@]2(C)CCC[C@H](C)[C@H](O)[C@@H](C)C(=O)C(C)(C)[C@@H](O)CC(=O)O1 [Epothilone B]
- activity at 2 µg/mL [1, 14]: 5.18%
- activity at 2 µg/mL [1, 15]: 3.63%
- activity at 2 µg/mL [2, 16]: 31.4%
- activity at 2 µg/mL [2, 17]: -0.31%
- percent parasite growth at 2 µg/mL ([3]; Toxoplasma gondii; library screen at 2 μg/mL, 72 h, % growth, replicate 1; read-out: Tg_72h_%Growth_Rep1): 5.99%
- percent parasite growth at 2 µg/mL ([3]; Toxoplasma gondii; library screen at 2 μg/mL, 72 h, % growth, replicate 2; read-out: Tg_72h_%Growth_Rep2): 3.71%

SMILES: CN1CCC2(c3cccc4c3NC3N(C)CCC43C34CCN(C)C3Nc3ccccc34)c3ccccc3NC12 (stereo not drawn) [BIA-H1948]
- Pf_120h_%Growth_Rep1 ([1]; P. falciparum 3D7, 120 h, library screen at 2 μg/mL, % growth, replicate 1): 10.24%
- Pf_120h_%Growth_Rep2 ([1]; P. falciparum 3D7, 120 h, library screen at 2 μg/mL, % growth, replicate 2): -13.19%
- Pf_72h_%Growth_Rep1 ([2]; P. falciparum 3D7, 72 h, library screen at 2 μg/mL, % growth, replicate 1): 8.04%
- Pf_72h_%Growth_Rep2 ([2]; P. falciparum 3D7, 72 h, library screen at 2 μg/mL, % growth, replicate 2): 0.51%
- Tg_72h_%Growth_Rep1 ([3]; T. gondii RH, 72 h, library screen at 2 μg/mL, % growth, replicate 1): 27.32%
- Tg_72h_%Growth_Rep2 ([3]; T. gondii RH, 72 h, library screen at 2 μg/mL, % growth, replicate 2): 71.35%

SMILES: O=C(O)/C=C/c1ccc(O)cc1 [Coumaric acid, p-]
- Pf_120h_%Growth_Rep1 ([1]; P. falciparum, 120 h, screen at 2 μg/mL, replicate 1): 65.95%
- Pf_120h_%Growth_Rep2 ([1]; P. falciparum, 120 h, screen at 2 μg/mL, replicate 2): 100.33%
- Pf_72h_%Growth_Rep1 ([2]; P. falciparum, 72 h, screen at 2 μg/mL, replicate 1): 85.52%
- Pf_72h_%Growth_Rep2 ([2]; P. falciparum, 72 h, screen at 2 μg/mL, replicate 2): 91.08%
- Tg_72h_%Growth_Rep1 ([3]; T. gondii, 72 h, screen at 2 μg/mL, replicate 1): 117.43%
- Tg_72h_%Growth_Rep2 ([3]; T. gondii, 72 h, screen at 2 μg/mL, replicate 2): 104.71%

SMILES: Cc1cc2nc3c(=O)[nH]c(=O)nc-3n(C[C@H](O)[C@H](O)[C@H](O)CO)c2cc1N(C)C [Roseoflavin]
- Pf_120h_%Growth_Rep1 [1, 4]: 4.42%
- Pf_120h_%Growth_Rep2 [1, 5]: 7.07%
- Pf_72h_%Growth_Rep1 [2, 6]: 11.70%
- Pf_72h_%Growth_Rep2 [2, 7]: 10.95%
- Mean ([3]; T. gondii, 72 h, 2 μg/mL; mean of both replicates, growth (% of control)): 28.14
- Replicate 1 [3, 18]: 40.04
- Replicate 2 [3, 18]: 16.23
- Tg_72h_%Growth_Rep1 [3, 8]: 40.04%
- Tg_72h_%Growth_Rep2 [3, 9]: 16.23%

SMILES: CC1(O)Cc2oc3cc(O)c(O)c(C(=O)O)c3c(=O)c2CO1 (stereo not drawn) [Fulvic acid]
- Pf_120h_%Growth_Rep1 [1, 10]: 105.15%
- Pf_120h_%Growth_Rep2 [1, 11]: 98.61%
- Pf_72h_%Growth_Rep1 [2, 12]: 84.86%
- Pf_72h_%Growth_Rep2 [2, 13]: 84.76%
- Tg_72h_%Growth_Rep1 [3, 12]: 149.83%
- Tg_72h_%Growth_Rep2 [3, 13]: 113.67%

SMILES: COc1cc(O)c2c(c1)C(=O)c1cc3c(c(O)c1C2=O)C(OC1OC(C)C(OC)C(O)C1OC)C(OC)C(C)(O)C3=O (stereo not drawn) [Steffimycin B]
- Pf_120h_%Growth_Rep1 [1, 4]: 57.65%
- Pf_120h_%Growth_Rep2 [1, 5]: 80.04%
- Pf_72h_%Growth_Rep1 [2, 6]: 70.82%
- Pf_72h_%Growth_Rep2 [2, 7]: 45.75%
- Tg_72h_%Growth_Rep1 [3, 8]: 26.05%
- Tg_72h_%Growth_Rep2 [3, 9]: 22.83%

SMILES: COc1oc(C2C/C(=C/C(C)=C/C(C)=C/C(C)=C/c3ccc([N+](=O)[O-])cc3)CO2)c(C)c(=O)c1C (stereo not drawn) [BIA-N1058]
- Pf_120h_%Growth_Rep1 ([1]; P. falciparum 3D7, 120 h, parasite screen at 2 μg/mL, % growth, replicate 1): 17.59%
- Pf_120h_%Growth_Rep2 ([1]; P. falciparum 3D7, 120 h, parasite screen at 2 μg/mL, % growth, replicate 2): 18.76%
- Pf_72h_%Growth_Rep1 ([2]; P. falciparum 3D7, 72 h, parasite screen at 2 μg/mL, % growth, replicate 1): 9.38%
- Pf_72h_%Growth_Rep2 ([2]; P. falciparum 3D7, 72 h, parasite screen at 2 μg/mL, % growth, replicate 2): 10.75%
- Tg_72h_%Growth_Rep1 ([3]; T. gondii, 72 h, parasite screen at 2 μg/mL, % growth, replicate 1): 44.53%
- Tg_72h_%Growth_Rep2 ([3]; T. gondii, 72 h, parasite screen at 2 μg/mL, % growth, replicate 2): 72.88%

SMILES: O=c1c(-c2ccc(O)cc2)coc2cc(O)cc(O)c12 [Genistein]
- activity at 2 µg/mL [1, 14]: 89.5%
- activity at 2 µg/mL [1, 15]: 111%
- activity at 2 µg/mL [2, 16]: 88.5%
- activity at 2 µg/mL [2, 17]: 42.1%
- percent parasite growth at 2 µg/mL ([3]; Toxoplasma gondii, 72 h, library screen at 2 μg/mL, 72 h, % growth, replicate 1; read-out: Tg_72h_%Growth_Rep1): 80.3%
- percent parasite growth at 2 µg/mL ([3]; Toxoplasma gondii, 72 h, library screen at 2 μg/mL, 72 h, % growth, replicate 2; read-out: Tg_72h_%Growth_Rep2): 72.4%
